Assay [1] has as its target T1, Bgl.bli1 (Bacillus licheniformis, UniProt Q65D83).
T1 construct: gene BL01920; cloning primers encode start MARQTW and end TEEFRYK
T1 sequence (Q65D83 1-478): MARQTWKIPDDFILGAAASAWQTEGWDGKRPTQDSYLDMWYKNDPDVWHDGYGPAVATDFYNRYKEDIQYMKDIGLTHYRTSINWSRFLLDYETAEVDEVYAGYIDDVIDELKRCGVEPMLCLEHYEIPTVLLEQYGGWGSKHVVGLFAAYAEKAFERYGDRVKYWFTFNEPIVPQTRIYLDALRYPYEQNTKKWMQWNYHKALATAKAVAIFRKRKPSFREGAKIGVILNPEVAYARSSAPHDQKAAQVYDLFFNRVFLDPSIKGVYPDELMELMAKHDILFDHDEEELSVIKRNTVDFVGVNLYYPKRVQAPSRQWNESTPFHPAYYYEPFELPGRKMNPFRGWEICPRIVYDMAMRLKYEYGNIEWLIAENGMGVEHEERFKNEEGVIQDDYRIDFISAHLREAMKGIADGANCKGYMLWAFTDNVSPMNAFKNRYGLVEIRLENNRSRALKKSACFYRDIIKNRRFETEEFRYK
Put plainly: pNPG hydrolysis with added glucose. Format: biochemical. The note with it: substrate pNPG, called competitive by the authors. The source says: pNPG hydrolysis with added glucose on Bgl.bli1

For assay [2], the target named is T1, Bgl.bli1. Put plainly: pNPG hydrolysis. Format: biochemical. The note with it: standard assay, no glucose added.

On to `OC[C@H]1OC(O)[C@H](O)[C@@H](O)[C@@H]1O` (some centres unmarked) [glucose], for which, on Bgl.bli1 [1], the “Relative activity (%) at 10% (w/w) glucose” value turned out to be 49.26%.

Regarding `O=[N+]([O-])c1ccc(O[C@@H]2O[C@H](CO)[C@@H](O)[C@H](O)[C@H]2O)cc1` [p-nitrophenyl-β-D-glucopyranoside], the pNPG hydrolysis entry on Bgl.bli1 [2] was “Bgl.bli1 activity was determined by measuring the hydrolysis of p-nitrophenyl-β-D-glucopyranoside (pNPG)”.
